Values quoted from earlier work, collected in patent US20150320746A1, “PHARMACEUTICAL FORMULATION COMPRISING 2,3-DIMETHYL-6-(N,N-DIMETHYLAMINOETHYL)-6H-INDOLO-(2,3-B)QUINOXALINE” (priority 2011, published 2015).

Tested on: HSV-1

Nc1nc2c(ncn2COCCO)c(=O)[nH]1 [Acyclovir, acyclovir]
selectivity ratio for the inhibitory activity against HSV-1 in vitro: about 2000
